Legend:
[1] = test system: liver cells of young mice; experiment: RNA-Seq and ChIP-Atlas analysis of liver cells of young mice; type: in vivo, mouse; conditions: oral, 50 mg/kg/day, 2 months, Table 3
Protocol: (§1) Water-suspended Compound #5 was orally administered to C57BL6 mice (12 weeks old) at a dose of 50 mg/kg/day per kg of mouse weight for 2 months ([MA5 addition group], n=5). After 2 months of oral administration, the mice were 20 weeks old.
(§2) In addition, water was orally administered to C57BL6 mice (12 weeks old) for 2 months ([Vehicle group], n=5). After 2 months of oral administration, the mice were 20 weeks old.
RNA sequencing (RNA-Seq) analysis was performed on the liver cells of young mice in [MA5 addition group] and [Vehicle group] to identify genes whose expression levels changed (increased or decreased) in [MA5 addition group] as compared with [Vehicle group]. Using the results of these gene names, integrated analysis with ChIP-Atlas was performed to investigate transcription factors possibly related to these genes.

[2] = test system: NDUFS4 homozygous knockout mice (Ndufs4−/−mice); experiment: HE staining of brown adipose tissue of Ndufs4−/− mice; type: in vivo, mouse; conditions: 10 mg/day per kg, 50 days, compared with CMC administration group
Protocol: Compound #5 was administered to NDUFS4 homozygous knockout mice (Ndufs4−/−mice) (28 days old) at a dose of 10 mg/day per kg of mouse weight for 50 days ([Compound #5 administration group]).
In addition, CMC (carboxymethylcellulose) was administered to NDUFS4 homozygous knockout mice (Ndufs4−/−mice) at a dose of 10 mg/day per kg of mouse weight for 50 days ([CMC administration group; Control group]).
Since the NDUFS4 homozygous knockout mice are mice with abnormal mitochondrial function and the abnormal mitochondrial function is one of aging phenomena, the NDUFS4 homozygous knockout mice can be used as one type of aging model mice.

[3] = test system: α-Klotho gene-deficient mice; experiment: Survival rate of α-Klotho gene-deficient mice (Kaplan-Meier); type: in vivo; conditions: oral, 10 mg/kg mouse weight/day from 28 days old until death
Protocol: Water-suspended Compound #5 was orally administered to α-Klotho gene-deficient mice (28 days old) as a premature aging animal model at a dose of 10 mg/kg mouse weight/day, the progress was observed until death, and the survival rate was evaluated from a survival curve based on the Kaplan-Meier method (Klotho homo KO mouse administration group, n=9).
In addition, water was orally administered to α-Klotho gene-deficient mice (28 days old) until death (Klotho homo KO mouse non-administered group, n=9).

[4] = test system: C57BL6 mice (12 weeks old); experiment: Treadmill running test of young mice; type: in vivo, mouse; conditions: oral, 2 months; for decrease in the running time on a treadmill: young C57BL6 mice (12 weeks old); for time to exhaustion: young C57BL6 mice, compared to Vehicle group
Protocol: Water-suspended Compound #5 was orally administered to C57BL6 mice (12 weeks old) at a dose of 50 mg/kg/day per kg of mouse weight for 2 months ([MA5 high dose addition group], n=5).
Water-suspended Compound #5 was orally administered to C57BL6 mice (12 weeks old) at a dose of 10 mg/kg/day per kg of mouse weight for 2 months ([MA5 low dose addition group], n=5).
In addition, water was orally administered to C57BL6 mice (12 weeks old) for 2 months ([Vehicle group], n=5).

[5] = test system: muscle cells of young mice; experiment: RNA-Seq, pathway and ChIP-Atlas analysis of muscle cells of young mice; type: in vivo, mouse; conditions: oral, 50 mg/kg/day, 2 months
Protocol: as §1, §2
(§3) RNA sequencing (RNA-Seq) analysis was performed on the muscle cells of the young mice in [MA5 addition group] and [Vehicle group] to identify genes whose expression levels changed (increased or decreased) in [MA5 addition group] and [Vehicle group] compared to the muscle cells of young mice before administration. The results are illustrated in FIG. 16.
Based on the names of genes whose expression levels increased or decreased in the young mice of [MA5 addition group] as compared with the young mice of [Vehicle group] in the RNA sequence (RNA-Seq) analysis, pathway analysis of genes whose expression levels varied in [MA5 addition group] was performed. The results are illustrated in FIG. 17. […]

[6] = test system: muscle cells of aged mice; experiment: RNA-Seq, pathway and ChIP-Atlas analysis of muscle cells of aged mice; type: in vivo, mouse; conditions: oral, 50 mg/kg/day, 2 months
Protocol: Water-suspended Compound #5 was orally administered to C57BL6 mice (92 weeks old) at a dose of 50 mg/kg/day per kg of mouse weight for 2 months ([MA5 addition group], n=5). After 2 months of oral administration, the mice were 101 weeks old.
In addition, water was orally administered to C57BL6 mice (92 weeks old) for 2 months ([Vehicle group], n=5). After 2 months of oral administration, the mice were 101 weeks old.
as §3, with “aged” for “the young”, “administration.” for “administration. The results are illustrated in FIG. 16.”
Based on the names of genes whose expression levels increased or decreased in the aged mice of [MA5 addition group] as compared with the aged mice of [Vehicle group] in the RNA sequence (RNA-Seq) analysis, pathway analysis of genes whose expression levels varied in muscle cells of the aged mice of [MA5 addition group] was performed.
The results of the names of the genes whose expression levels increased or decreased in the aged mice of [MA5 addition group] as compared with the aged mice of [Vehicle group] in the RNA sequence (RNA-Seq) analysis were used to perform integrated analysis with ChIP-Atlas to investigate transcription factors possibly related to these genes.

O=C(CC(C(=O)O)c1c[nH]c2ccccc12)c1ccc(F)cc1F (stereo not drawn) [Compound #5, 4-(2,4-difluorophenyl)-2-(1H-indole-3-yl)-4-oxo-butanoic acid]
transcription factors related to genes whose expression increased (ChIP-Atlas) [1]: MYC, OCT4, SOX2, and NANOG related to reprogramming factors in the production of iPS cells, RXR (retinoid X receptor) and PPARA (peroxisome proliferator-activated receptor a) related to SIRT, and TRIM28
size of lipid droplets in brown adipose tissue [2]: decrease
survival rate [3]: significantly increased
decrease in the running time on a treadmill ([4]; 10 mg/kg/day (low dose)): inhibited
decrease in the running time on a treadmill ([4]; 50 mg/kg/day (high dose)): inhibited
time to exhaustion ([4]; 10 mg/kg/day (low dose)): significantly improved
time to exhaustion ([4]; 50 mg/kg/day (high dose)): significantly improved
expression levels of genes related to differentiation, development, and the like of muscles such as Tbx1 Gene [5]: increased
transcription factors related to the genes whose expression increased (ChIP-Atlas) ([5]; Table 2): SUZ^12 and EZH2
MAPK cascade (pathway analysis) [6]: inhibition
insulin signaling pathway (pathway analysis) [6]: enhancement
longevity regulating pathway (pathway analysis) [6]: enhancement
transcription factors associated with genes whose expression was increased (ChIP-Atlas) ([6]; Table 1): FOXO1 known as longevity genes, KLF4, which is one of reprogramming factors necessary for the production of iPS cells, and KLF2 and KLF5
expression level of Klf4 Gene ([6]; vs Vehicle group): significantly increased
expression level of Myc Gene ([6]; vs Vehicle group): significantly increased
expression level of Nanog Gene ([6]; vs Vehicle group): tended to increase
expression level of Pou5f1 (Oct4) Gene ([6]; vs Vehicle group): tended to increase
expression level of Sox2 Gene ([6]; vs Vehicle group): significantly increased
